Assay results reported in PMC6688508 (Journal of medicinal chemistry, 2019).
“Also recorded” adds a separate entry of the source.

Assays:
human D1 [1] = biological target: T1, human D1 (Homo sapiens, UniProt P21728); experiment: BRET β-arrestin2 recruitment assay; settings: for β-arrestin2 recruitment activity in words: D1R BRET assay
human D1 [2] = biological target: T1, human D1; experiment: D1R GS-mediated GS-cAMP accumulation assay; settings: for GS-cAMP accumulation activity in words: D1R GloSensor assay; for fold reduced potency in the GS-cAMP accumulation assay compared to 1: compared to compound 1

T1 sequence (P21728 whole entry): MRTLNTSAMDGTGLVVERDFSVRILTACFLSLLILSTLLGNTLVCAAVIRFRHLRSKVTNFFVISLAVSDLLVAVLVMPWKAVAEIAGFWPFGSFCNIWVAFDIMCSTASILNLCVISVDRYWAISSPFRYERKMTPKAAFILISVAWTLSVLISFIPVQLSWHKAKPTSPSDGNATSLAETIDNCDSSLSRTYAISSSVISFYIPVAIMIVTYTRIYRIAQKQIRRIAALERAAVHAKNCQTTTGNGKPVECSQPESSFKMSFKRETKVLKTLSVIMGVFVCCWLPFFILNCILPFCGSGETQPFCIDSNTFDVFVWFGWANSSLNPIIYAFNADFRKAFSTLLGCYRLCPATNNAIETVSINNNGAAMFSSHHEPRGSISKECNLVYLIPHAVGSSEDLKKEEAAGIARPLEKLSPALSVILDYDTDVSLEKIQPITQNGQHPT

SMILES | β-arrestin2 recruitment activity in words (human D1 [1]) | other results
Cc1cc(-c2cccc3nccn23)ccc1Oc1nccc2occc12 [Compound 37, 4-(4-(Imidazo[1,2-a]pyridin-5-yl)-2-methylphenoxy)furo[3,2-c]-pyridine] | eliminated β-arrestin2 recruitment activity | –
Cc1cc(Oc2nccc3occc23)ccc1-c1c(C)cnnc1C [Compound 9, 4-(4-(3,5-Dimethylpyridazin-4-yl)-3-methylphenoxy)furo[3,2-c]-pyridine] | not active in the β-arrestin2 recruitment assay | EC50 (human D1 [2]): 1 nM
FC(F)(F)c1cc(Oc2ccccn2)ccc1-c1cccc2nccn12 [Compound 49, 5-(4-(Pyridin-2-yloxy)-2-(trifluoromethyl)phenyl)imidazo[1,2-a]-pyridine] | no activity in the β-arrestin2 pathway | –
Cc1cc(Oc2nccn3ccnc23)ccc1-c1c(C)ncc2nccn12 [Compound 31, 5-(4-(Imidazo[1,2-a]pyrazin-8-yloxy)-2-methylphenyl)-6-methylimidazo[1,2-a]pyrazine] | β-arrestin2 recruitment was undetectable | –
FC(F)(F)c1cc(-c2cccc3nccn23)ccc1Oc1nccc2occc12 [Compound 42, 4-(4-(Imidazo[1,2-a]pyridin-5-yl)-2-(trifluoromethyl)phenoxy)-furo[3,2-c]pyridine] | inactive in both G protein and β-arrestin2 recruitment assays | GS-cAMP accumulation activity in words (human D1 [2]): inactive in both G protein and β-arrestin2 recruitment assays
Cc1cc(Nc2nccc3occc23)ccc1-c1c(C)ncc2nccn12 [Compound 20, N-(3-Methyl-4-(6-methylimidazo[1,2-a]pyrazin-5-yl)phenyl)furo-[3,2-c]pyridin-4-amine] | only minimally active in the β-arrestin2 recruitment assay | –
CCOc1ncnc(C)c1-c1ccc(Oc2nccc3occc23)cc1C [Compound 8, 4-(4-(4-Ethoxy-6-methylpyrimidin-5-yl)-3-methylphenoxy)furo-[3,2-c]pyridine] | not active in the β-arrestin2 recruitment assay | –
Cc1cc(Oc2nccc3occc23)ccc1-c1c(C)nc2cnccn12 [Compound 4, 4-(3-Methyl-4-(2-methylimidazo[1,2-a]pyrazin-3-yl)phenoxy)-furo[3,2-c]pyridine] | – | fold reduced potency in the GS-cAMP accumulation assay compared to 1 (human D1 [2]): 23 fold; fold reduction in potency for β-arrestin2 recruitment compared to 1 (human D1 [1]; compared to compound 1): 22 fold
Cc1cc(Oc2nccc3[nH]ncc23)ccc1-c1c(C)ncc2nccn12 [Compound 32, 4-(3-Methyl-4-(6-methylimidazo[1,2-a]pyrazin-5-yl)phenoxy)-1H-pyrazolo[4,3-c]pyridine] | not recovered | –
Cc1ncc2nccn2c1-c1ccc(Oc2nccc3occc23)cc1C(F)(F)F [Compound 17, 4-(4-(6-Methylimidazo[1,2-a]pyrazin-5-yl)-3-(trifluoromethyl)-phenoxy)furo[3,2-c]pyridine] | potent full agonist of both signaling pathways | GS-cAMP accumulation activity in words (human D1 [2]): potent full agonist of both signaling pathways
Cc1cc(Oc2nccc3occc23)ccc1-c1ccc(C#N)cn1 [Compound 13, 6-(4-(Furo[3,2-c]pyridin-4-yloxy)-2-methylphenyl)nicotinonitrile] | inactive in the β-arrestin2 recruitment assay | –
Cc1ncc2nccn2c1-c1ccc(Oc2nccc3occc23)c(C)c1C [Compound 15, 4-(2,3-Dimethyl-4-(6-methylimidazo[1,2-a]pyrazin-5-yl)-phenoxy)furo[3,2-c]pyridine] | inactive in β-arrestin2 recruitment | –
Cc1cc(Oc2nccc3occc23)ccc1-c1nc(N)cnc1C [Compound 7, 6-(4-(Furo[3,2-c]pyridin-4-yloxy)-2-methylphenyl)-5-methylpyrazin-2-amine] | minimal β-arr2 recruitment | –
Cc1ncc2nccn2c1-c1ccc(Oc2nccc3occc23)c(C(F)(F)F)c1 [Compound 18, 4-(4-(6-Methylimidazo[1,2-a]pyrazin-5-yl)-2-(trifluoromethyl)-phenoxy)furo[3,2-c]pyridine] | completely devoid of activity in both the G protein and β-arrestin2 recruitment assays | GS-cAMP accumulation activity in words (human D1 [2]): completely devoid of activity in both the G protein and β-arrestin2 recruitment assays
Cc1cc(Oc2nccc3occ(C4CC4)c23)ccc1-c1c(C)ncc2nccn12 [Compound 26, 3-Cyclopropyl-4-(3-methyl-4-(6-methylimidazo[1,2-a]pyrazin-5-yl)phenoxy)furo[3,2-c]pyridine] | diminished β-arrestin2 recruitment activity | –
Cc1cc(Oc2nccc3occc23)cc(C)c1-c1cccc2nccn12 [Compound 39, 4-(4-(Imidazo[1,2-a]pyridin-5-yl)-3,5-dimethylphenoxy)furo[3,2-c]pyridine] | completely inactive | GS-cAMP accumulation activity in words (human D1 [2]): completely inactive
FC(F)(F)c1cc(Oc2cc(N3CCCCC3)ccn2)ccc1-c1cccc2nccn12 [Compound 50, 5-(4-((4-(Piperidin-1-yl)pyridin-2-yl)oxy)-2-(trifluoromethyl)-phenyl)imidazo[1,2-a]pyridine] | inactive in both the GS and β-arrestin2 pathways | GS-cAMP accumulation activity in words (human D1 [2]): inactive in both the GS and β-arrestin2 pathways

SMILES | β-arrestin2 recruitment activity in words (human D1 [1]) | other results
Cc1cc(Oc2ncccc2Br)ccc1-c1c(C)ncc2nccn12 [Compound 34, 5-(4-((3-bromopyridin-2-yl)oxy)-2-methylphenyl)-6-methylimidazo[1,2-a]pyrazine] | completely inactive in both pathways | GS-cAMP accumulation activity in words (human D1 [2]): completely inactive in both pathways
Cc1cc(Oc2nccc3ccccc23)ccc1-c1c(C)ncc2nccn12 [Compound 28, 1-(3-Methyl-4-(6-methylimidazo[1,2-a]pyrazin-5-yl)phenoxy)-isoquinoline] | inactive for β-arrestin2 recruitment | –
Cc1cc(Oc2cccc3occc23)ccc1-c1c(C)ncc2nccn12 [Compound 27, 5-(4-(Benzofuran-4-yloxy)-2-methylphenyl)-6-methylimidazo-[1,2-a]pyrazine] | inactivity for β-arrestin2 recruitment | –
FC(F)(F)c1cc(Oc2nccc3occ(C4CC4)c23)ccc1-c1cccc2nccn12 [Compound 44, 3-Cyclopropyl-4-(4-(imidazo[1,2-a]pyridin-5-yl)-3-(trifluoromethyl)phenoxy)furo[3,2-c]pyridine] | abolished β-arrestin2 recruitment | –
Fc1cc(-c2cccc3nccn23)cc(F)c1Oc1nccc2occc12 [Compound 43, 4-(2,6-Difluoro-4-(imidazo[1,2-a]pyridin-5-yl)phenoxy)furo[3,2-c]pyridine] | minimal β-arrestin2 recruitment | –
FC(F)(F)c1cc(Oc2nccc3ccccc23)ccc1-c1cccc2nccn12 [Compound 45, 1-(4-(Imidazo[1,2-a]pyridin-5-yl)-3-(trifluoromethyl)phenoxy)-isoquinoline] | β-arrestin2 recruitment still eliminated | –
COc1ccc(-c2ccc(Oc3nccc4occc34)cc2C)c(C)n1 [Compound 11, 4-(4-(6-Methoxy-2-methylpyridin-3-yl)-3-methylphenoxy)furo-[3,2-c]pyridine] | inactive in the β-arrestin2 recruitment assay | –
FC(F)(F)c1cc(Oc2nccc3ccsc23)ccc1-c1cccc2nccn12 [Compound 46, 7-(4-(Imidazo[1,2-a]pyridin-5-yl)-3-(trifluoromethyl)phenoxy)-thieno[2,3-c]pyridine] | minimal β-arr2 recruitment; also recorded: greatly weakened | –
Cc1c(Oc2nccc3occc23)ccc(-c2cccc3nccn23)c1C [Compound 38, 4-(4-(Imidazo[1,2-a]pyridin-5-yl)-2,3-dimethylphenoxy)furo[3,2-c]pyridine] | β-arrestin2 recruitment was eliminated | –
Cc1ncc2nccn2c1-c1cc(F)c(Oc2nccc3occc23)c(F)c1 [Compound 19, 4-(2,6-Difluoro-4-(6-methylimidazo[1,2-a]pyrazin-5-yl)-phenoxy)furo[3,2-c]pyridine] | eliminated β-arrestin2 recruitment activity | –
Cc1cc(Oc2nccc3occc23)ccc1-c1cncc(C(N)=O)c1 [Compound 12, 5-(4-(Furo[3,2-c]pyridin-4-yloxy)-2-methylphenyl)nicotinamide] | inactive in the β-arrestin2 recruitment assay | –
Cc1cc(-c2c(C)ncc3nccn23)ccc1Oc1nccc2occc12 [Compound 14, 4-(2-Methyl-4-(6-methylimidazo[1,2-a]pyrazin-5-yl)phenoxy)-furo[3,2-c]pyridine] | completely eliminated β-arrestin2 recruitment activity | –
Cc1cc(Oc2nccc3occc23)ccc1-c1cccc2nccn12 [Compound 5, 4-(4-(Imidazo[1,2-a]pyridin-5-yl)-3-methylphenoxy)furo[3,2-c]-pyridine] | – | fold reduced potency in the GS-cAMP accumulation assay compared to 1 (human D1 [2]): approximately 10 fold
Cc1cc(Oc2ccccn2)ccc1-c1c(C)ncc2nccn12 [Compound 33, 6-Methyl-5-(2-methyl-4-(pyridin-2-yloxy)phenyl)imidazo[1,2-a]-pyrazine] | very weak activity in the β-arrestin2 recruitment assay | –
COC(=O)c1cccn2c(-c3ccc(Oc4nccc5occc45)cc3C)cnc12 [Compound 6, Methyl-3-(4-(furo[3,2-c]pyridin-4-yloxy)-2-methylphenyl)-imidazo[1,2-a]pyridine-8-carboxylate] | no detectable β-arrestin2 recruitment activity | –
FC(F)(F)c1cc(Oc2nccn3cccc23)ccc1-c1cccc2nccn12 [Compound 47, 5-(4-(Pyrrolo[1,2-a]pyrazin-1-yloxy)-2-(trifluoromethyl)phenyl)-imidazo[1,2-a]pyridine] | completely abrogated | –
